Laboratory results taken from ChEMBL document CHEMBL1128789, “Constrained analogs of KCVFM with improved inhibitory properties against farnesyl transferase” (Bioorg Med Chem Lett, 1995).

Target: Protein farnesyltransferase (Rattus norvegicus, UniProt Q02293+Q04631)
Experiment: Inhibition of farnesyl transferase (FTase) of rat brain

Question: How did the IC50 turn out when `CSCC[C@H](NC(=O)[C@@H](NC(=O)[C@H](C(C)C)N(C)C(=O)[C@H](S)NC(=O)[C@H](N)CCCCN)c1ccccc1)C(=O)O` was run?
Answer: 1000 nM

Question: Which IC50 does the source give for `CSCC[C@H](NC(=O)[C@H](Cc1ccccc1)NC(=O)[C@H](C(C)C)N(C)C(=O)[C@H](S)NC(=O)[C@H](N)CCCCN)C(=O)O` here?
Answer: 1000 nM

Question: For `CSCC[C@H](NC(=O)[C@H]1Cc2ccccc2CN1C(=O)[C@H]1CCCN1C(=O)[C@H](CS)NC(=O)[C@@H](N)CCCCN)C(=O)O`, which IC50 is on record?
Answer: 100000 nM

Question: Which IC50 does the source give for `CSCC[C@H](NC(=O)[C@@H]1Cc2ccccc2CN1C(=O)[C@@H](NC(=O)[C@H](S)NC(=O)[C@H](N)CCCCN)C(C)(C)C)C(=O)O` here?
Answer: 40 nM

Question: Which IC50 does the source give for `CSCC[C@H](NC(=O)[C@@H]1Cc2ccccc2CN1C(=O)[C@H](NC(=O)[C@H](CS)NC(=O)[C@@H](N)CCCCN)C(C)C)C(=O)O` (stereo in doubt; form 1) here?
Answer: 100000 nM

Question: How did the IC50 turn out when `CSCC[C@H](NC(=O)[C@@H]1Cc2ccccc2CN1C(=O)C(NC(=O)[C@H](S)NC(=O)C(N)CCCCN)C(C)C)C(=O)O` (single isomer, unassigned; form 1) was run?
Answer: 100000 nM

Question: For `CSCC[C@H](NC(=O)[C@@H]1Cc2ccccc2CN1C(=O)[C@@H](NC(=O)[C@H](S)NC(=O)C(N)CCCCN)C(C)C)C(=O)O` (single isomer, unassigned), which IC50 is on record?
Answer: 20 nM

Question: For `CSCC[C@H](NC(=O)[C@@H]1Cc2ccccc2CN1C(=O)[C@H](C(C)C)N(C)C(=O)[C@H](S)NC(=O)[C@H](N)CCCCN)C(=O)O`, which IC50 is on record?
Answer: 5 nM

Question: With `CSCC[C@H](NC(=O)[C@@H]1Cc2ccccc2CN1C(=O)[C@@H]1CCCN1C(=O)[C@H](S)NC(=O)C(N)CCCCN)C(=O)O` (single isomer, unassigned) as the compound, how does the IC50 read?
Answer: 2000 nM

Question: With `CSCC[C@H](NC(=O)[C@@H]1Cc2ccccc2CN1C(=O)[C@H](NC(=O)[C@H](CS)NC(=O)[C@@H](N)CCCCN)C(C)C)C(=O)O` (stereo in doubt; form 2) as the compound, how does the IC50 read?
Answer: 50000 nM

Question: How did the IC50 turn out when `CSCC[C@H](NC(=O)[C@@H](NC(=O)[C@@H](NC(=O)[C@H](S)NC(=O)[C@H](N)CCCCN)C(C)(C)C)c1ccccc1)C(=O)O` was run?
Answer: 1000 nM

Question: Which IC50 does the source give for `CSCC[C@H](NC(=O)[C@H](Cc1ccccc1)NC(=O)[C@@H](NC(=O)[C@H](S)NC(=O)[C@H](N)CCCCN)C(C)C)C(=O)O` here?
Answer: 1000 nM

Question: How did the IC50 turn out when `CSCC[C@H](NC(=O)[C@@H]1Cc2ccccc2CN1C(=O)C(NC(=O)[C@H](S)NC(=O)C(N)CCCCN)C(C)C)C(=O)O` (single isomer, unassigned; form 2) was run?
Answer: 15000 nM
